≈ marks a conversion by molar mass, not a printed value. Where two headings read alike, the source gives them in different places.
Legend:
[1] = Reducing power assay (antioxidant, Fe3+ to Fe2+); conditions: at a concentration of 40 µg/mL, absorbance at 700 nm
[2] = target: T1, AChE enzyme from mice brain (Mus musculus, UniProt P21836); assay: biochemical
T1 construct: We used the prepared AChE enzyme from mice brain; from tissue; host or cells: mouse brain
Protocol: (§1) We used the prepared AChE enzyme from mice brain and BChE enzyme from human blood of a volunteer that has been mentioned earlier. Various concentrations of the compound (500 μL) were mixed with the enzyme solution (500 μL) and incubated at 37 °C for 30 min. A reaction mixture was prepared that contained 0.5 mM acetylthiocholine/butyrylthiocholine and 1 mM DTNB in 50 mM sodium phosphate buffer (pH 8.0). To the reaction mixture (3.5 mL), the enzyme solution containing compound was added, incubated, and immediately the absorbance of the solution was determined at 412 nm. […] The percent inhibition was calculated by dividing the difference of sample absorbance from control with control absorbance × 100.

[3] = target: T2, BChE enzyme from human blood (Homo sapiens, UniProt P06276); assay: Anti-BChE assay, Ellman method; type: biochemical
T2 construct: BChE enzyme from human blood of a volunteer; from tissue; host or cells: human blood of a volunteer
T2 sequence (P06276 29-602): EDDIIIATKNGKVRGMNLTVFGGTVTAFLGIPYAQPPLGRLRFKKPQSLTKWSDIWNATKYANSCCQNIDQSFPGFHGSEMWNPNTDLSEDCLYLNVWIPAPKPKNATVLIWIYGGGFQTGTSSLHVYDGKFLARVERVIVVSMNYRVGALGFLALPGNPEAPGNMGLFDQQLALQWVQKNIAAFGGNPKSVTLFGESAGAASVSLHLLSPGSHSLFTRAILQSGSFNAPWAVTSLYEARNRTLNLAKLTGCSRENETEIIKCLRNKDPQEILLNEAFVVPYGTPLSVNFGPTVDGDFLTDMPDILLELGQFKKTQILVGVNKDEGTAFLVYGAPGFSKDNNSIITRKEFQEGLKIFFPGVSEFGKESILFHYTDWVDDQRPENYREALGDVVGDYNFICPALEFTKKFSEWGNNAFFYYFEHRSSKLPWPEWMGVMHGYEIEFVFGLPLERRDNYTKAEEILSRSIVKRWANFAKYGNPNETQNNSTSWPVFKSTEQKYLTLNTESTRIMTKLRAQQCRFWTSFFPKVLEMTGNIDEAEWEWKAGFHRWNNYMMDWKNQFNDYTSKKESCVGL
Protocol: as §1

Bacillus Subtilis = assay: microbe, parasite or virus in culture; type: cell-based, Bacillus subtilis (QL-40)
Sarcina lutea = assay: microbe, parasite or virus in culture; type: cell-based, Sarcina lutea (QL-1660); conditions: for zone of inhibition at 400 µg/disc: Micrococcus luteus
Staphylococcus aureus = assay: microbe, parasite or virus in culture; type: cell-based, Staphylococcus aureus (ATCC-259233)
Bacillus megaterium = assay: microbe, parasite or virus in culture; type: cell-based, Bacillus megaterium (QL-38); conditions: for zone of inhibition at 400 µg/disc: Priestia megaterium
Strep-β-haemolyticus = assay: organism not typed; type: cell-based, Streptococcus-ß-haemolyticus (ATCC-10389)
Shigella dysenteriae = assay: microbe, parasite or virus in culture; type: cell-based, Shigella dysenteriae (AL-35587)
Shigella shiga = assay: microbe, parasite or virus in culture; type: cell-based, Shigella shiga (ATCC-26107); conditions: for zone of inhibition at 400 µg/disc: Shigella
Shigella boydii = assay: microbe, parasite or virus in culture; type: cell-based, Shigella boydii (AL-17313)
Shigella sonnei = assay: microbe, parasite or virus in culture; type: cell-based, Shigella sonnei (AJ-8992)
Shigella flexneriae = assay: microbe, parasite or virus in culture; type: cell-based, Shigella flexneriae (AM-36282)
Escherichia coli = assay: microbe, parasite or virus in culture; type: cell-based, Escherichia coli (FPFC-1407)
Salmonella typhi = assay: microbe, parasite or virus in culture; type: cell-based, Salmonella typhi (ATCC-14028); conditions: for zone of inhibition at 400 µg/disc: Salmonella enterica
Klebsiella species = assay: microbe, parasite or virus in culture; type: cell-based
Pseudomonas aeruginosa = assay: microbe, parasite or virus in culture; type: cell-based, Pseudomonas aeruginosa (ATCC-27853)
Aspergillus niger = type: cell-based, Aspergillus niger (ATCC-1204)
Aspergillus flavus = assay: microbe, parasite or virus in culture; type: cell-based, Aspergillus flavus (ATCC-9807)
Candida species = assay: microbe, parasite or virus in culture; type: cell-based
Fusarium species = assay: microbe, parasite or virus in culture; type: cell-based
[4] = Brine shrimp lethality bioassay (cytotoxicity); conditions: Artemia salina (brine shrimp nauplii), in vivo
[5] = test system: brine shrimp nauplii (Artemia salina Lech); assay: Brine shrimp lethality bioassay (cytotoxicity); conditions: brine shrimp lethality, 5–80 μg/mL

T1 sequence (P21836 32-614): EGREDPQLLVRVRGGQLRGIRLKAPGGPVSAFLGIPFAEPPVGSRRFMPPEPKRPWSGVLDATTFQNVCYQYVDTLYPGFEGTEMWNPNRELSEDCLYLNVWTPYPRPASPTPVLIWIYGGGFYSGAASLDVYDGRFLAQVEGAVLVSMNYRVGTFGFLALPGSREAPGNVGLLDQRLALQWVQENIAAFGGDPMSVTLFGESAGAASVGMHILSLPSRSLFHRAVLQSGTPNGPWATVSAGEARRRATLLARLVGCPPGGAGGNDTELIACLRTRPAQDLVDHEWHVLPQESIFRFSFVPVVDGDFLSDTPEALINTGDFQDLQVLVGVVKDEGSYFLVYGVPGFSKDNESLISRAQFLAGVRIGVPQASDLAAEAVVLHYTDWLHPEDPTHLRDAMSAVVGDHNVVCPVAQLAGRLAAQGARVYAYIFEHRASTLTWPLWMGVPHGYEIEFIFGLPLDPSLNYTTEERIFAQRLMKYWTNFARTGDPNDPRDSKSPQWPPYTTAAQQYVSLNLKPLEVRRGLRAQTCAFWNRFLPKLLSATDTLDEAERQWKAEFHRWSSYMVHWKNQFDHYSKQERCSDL

SMILES	absorbance (reducing power) [1]	IC50 [2] [µM]	IC50 [3] [µM]	zone of inhibition at 400 µg/disc (Bacillus Subtilis; 400 μg/disc) [mm]	zone of inhibition at 400 µg/disc (Sarcina lutea; 400 μg/disc) [mm]	zone of inhibition at 400 µg/disc (Staphylococcus aureus; 400 μg/disc) [mm]	zone of inhibition at 400 µg/disc (Bacillus megaterium; 400 μg/disc) [mm]	zone of inhibition at 400 µg/disc (Strep-β-haemolyticus; 400 μg/disc) [mm]	zone of inhibition at 400 µg/disc (Shigella dysenteriae; 400 μg/disc) [mm]	zone of inhibition at 400 µg/disc (Shigella shiga) [mm]	zone of inhibition at 400 µg/disc (Shigella boydii; 400 μg/disc) [mm]	zone of inhibition at 400 µg/disc (Shigella sonnei; 400 μg/disc) [mm]	zone of inhibition at 400 µg/disc (Shigella flexneriae; 400 μg/disc) [mm]	zone of inhibition at 400 µg/disc (Escherichia coli; 400 μg/disc) [mm]	zone of inhibition at 400 µg/disc (Salmonella typhi; 400 μg/disc) [mm]	zone of inhibition at 400 µg/disc (Klebsiella species; 400 μg/disc) [mm]	zone of inhibition at 400 µg/disc (Pseudomonas aeruginosa; 400 μg/disc) [mm]	Zone of Inhibition (Aspergillus niger; 400μg/disc)	LC50 at 24 h [4] [µg/mL]	Zone of Inhibition (Candida species; 400μg/disc)	further results
C=C1C[C@@]23CCC4[C@](C)(C(=O)O)CCC[C@@]4(C)[C@@H]2CC[C@@H]1C3 (single isomer, unassigned; (-)) [Compound 2, (-) kaur-16-en-19-oic acid]	1.26	115	111	14	16	13	12	18	20	15	14	13	13	16	15	17	16	−	16.2 ± 1.11 (≈ 53.5 µM)		zone of inhibition at 400 µg/disc (Aspergillus flavus; 400μg/disc): 17 mm; zone of inhibition at 400 µg/disc (Candida species; 400μg/disc): 13 mm; zone of inhibition at 400 µg/disc (Fusarium species; 400μg/disc): 11 mm
CC[C@H](CC[C@@H](C)[C@H]1CC[C@H]2[C@@H]3CC=C4C[C@@H](O)CC[C@]4(C)[C@H]3CC[C@]12C)C(C)C [Compound 3, β-sitosterol]		107	104															−		−	Zone of Inhibition (Bacillus Subtilis; 400 μg/disc): −; Zone of Inhibition (Sarcina lutea; 400 μg/disc): −; Zone of Inhibition (Staphylococcus aureus; 400 μg/disc): −; Zone of Inhibition (Bacillus megaterium; 400 μg/disc): −; Zone of Inhibition (Strep-β-haemolyticus; 400 μg/disc): −; Zone of Inhibition (Shigella dysenteriae; 400 μg/disc): −; Zone of Inhibition (Shigella shiga): −; Zone of Inhibition (Shigella boydii; 400 μg/disc): −; Zone of Inhibition (Shigella sonnei; 400 μg/disc): −; Zone of Inhibition (Shigella flexneriae; 400 μg/disc): −; Zone of Inhibition (Escherichia coli; 400 μg/disc): −; Zone of Inhibition (Salmonella typhi; 400 μg/disc): −; Zone of Inhibition (Klebsiella species; 400 μg/disc): −; Zone of Inhibition (Pseudomonas aeruginosa; 400 μg/disc): −; Zone of Inhibition (Aspergillus flavus; 400μg/disc): −; Zone of Inhibition (Fusarium species; 400μg/disc): −; cytotoxic effects (in words) [5]: All the compounds except 3 showed significant cytotoxic effects
CC[C@]1(O)C[C@H]2CN(CCc3c([nH]c4ccccc34)[C@@](C(=O)OC)(c3cc4c(cc3OC)N(C=O)[C@H]3[C@@](O)(C(=O)OC)[C@H](OC(C)=O)[C@]5(CC)C=CCN6CC[C@]43[C@@H]65)C2)C1 [Vincristine, vincristine, reference compound]																			3.48 ± 0.36 (≈ 4.22 µM)		
NC[C@H]1O[C@H](O[C@H]2[C@H](O)[C@@H](O[C@H]3O[C@H](CO)[C@@H](O)[C@H](N)[C@H]3O)[C@H](N)C[C@@H]2N)[C@H](O)[C@@H](O)[C@@H]1O [Std. Kan, kanamycin, reference compound]																					Zone of Inhibition (Bacillus Subtilis; 30 μg/disc): 24 mm; Zone of Inhibition (Sarcina lutea; 30 μg/disc): 29 mm; Zone of Inhibition (Staphylococcus aureus; 30 μg/disc): 33 mm; Zone of Inhibition (Bacillus megaterium; 30 μg/disc): 27 mm; Zone of Inhibition (Strep-β-haemolyticus; 30 μg/disc): 27 mm; Zone of Inhibition (Shigella dysenteriae; 30 μg/disc): 32 mm; Zone of Inhibition (Shigella shiga): 31 mm; Zone of Inhibition (Shigella boydii; 30 μg/disc): 31 mm; Zone of Inhibition (Shigella sonnei; 30 μg/disc): 31 mm; Zone of Inhibition (Shigella flexneriae; 30 μg/disc): 27 mm; Zone of Inhibition (Escherichia coli; 30 μg/disc): 27 mm; Zone of Inhibition (Salmonella typhi; 30 μg/disc): 28 mm; Zone of Inhibition (Klebsiella species; 30 μg/disc): 28 mm; Zone of Inhibition (Pseudomonas aeruginosa; 30 μg/disc): 31 mm
CC(C)C=CC[C@@H](C)[C@H]1CC[C@H]2[C@@H]3CC=C4CC(O)CC[C@]4(C)[C@H]3CC[C@]12C (some centres unmarked) [Compound 4, cholesta-5,23-dien-3-ol]	1.89	117	124	12	13	9	12	12	13	14	10	12	11	13	10	13	12	−	14.3 ± 0.87 (≈ 37.1 µM)	−	Zone of Inhibition (Aspergillus flavus; 400μg/disc): −; Zone of Inhibition (Fusarium species; 400μg/disc): −
O.Oc1cc(O)c2c(c1)O[C@H](c1ccc(O)c(O)c1)[C@@H](O)C2 [catechin, reference compound]	2.14																				
C[C@@]12CCC[C@@](C)(C(=O)O)[C@H]1CC[C@@]13C[C@@H](CC[C@H]12)[C@](C)(O)C3 [Compound 1, (-) kaur-16α-hydroxy-19-oic acid]	1.55			13	17	23	14	17	19	14	13	15	12	14	13	15	15	−	12.4 ± 0.87 (≈ 38.8 µM)	inactive and −	IC50 ([2]; mean ± SD (n = 3), read-out: IC50, inhibition of acetylcholinesterase (AChE) (converted)): 152 µM; IC50 ([3]; mean ± SD (n = 3), read-out: IC50, inhibition of butyrylcholinesterase (BChE) (converted)): 145 µM; zone of inhibition at 400 µg/disc (Aspergillus flavus; 400μg/disc): 14 mm; zone of inhibition at 400 µg/disc (Fusarium species; 400μg/disc): 12 mm
C[C@@H]1[C@H](O)[C@@H](C)/C=C/C=C/CC/C=C/C=C/C=C/C=C/C(O[C@H]2O[C@H](C)[C@@H](O)[C@H](N)[C@@H]2O)CC2O[C@](O)(CC(O)C(O)CCC(O)CC(O)CC(O)CC(=O)O[C@H]1C)CC(O)C2C(=O)O (some centres unmarked) [Std. Nystatin, nystatin, reference compound]																					Zone of Inhibition (Aspergillus niger; 50 μg/disc): 29 mm; Zone of Inhibition (Aspergillus flavus; 50 μg/disc): 30 mm; Zone of Inhibition (Candida species; 50 μg/disc): 28 mm; Zone of Inhibition (Fusarium species; 50 μg/disc): 26 mm

Reference: PMC9865212, “Compounds from the Petroleum Ether Extract of Wedelia chinensis with Cytotoxic, Anticholinesterase, Antioxidant, and Antimicrobial Activities” (Molecules, 2023)
